According to patent publication US20230233569A1 (Revolution Medicines, Inc., priority 2020, published 2023):

Experiments:
[1] = biological target: KRAS G12S (Homo sapiens, UniProt P01116+P62937, G12S); assay: Disruption of BRAF RBD interaction with Ras (FRET / MOA assay, with Cyclophilin A); assay type: biochemical; conditions: read-out: KRAS G12S FRET data, IC50
Procedure, shortened: (§1)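 Here, compound titrations (ten points, factor 3, from 30 μM final) act on nucleotide-bound K-Ras and Cyclophilin A, and ternary complex formation disrupts the RAF RBD interaction.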

[2] = biological target: KRAS G13C (Homo sapiens, UniProt P01116+P62937, G13C); assay: as above; assay type: biochemical; conditions: read-out: KRAS G13C FRET data, IC50
Procedure, shortened: as §1

[3] = biological target: KRAS G12C (Homo sapiens, UniProt P01116+P62937, G12C); assay: as above; assay type: biochemical; conditions: read-out: KRAS G12C FRET data, IC50
Procedure, shortened: as §1

[4] = biological target: KRAS G13D (Homo sapiens, UniProt P01116+P62937, G13D); assay: as above; assay type: biochemical; conditions: KRAS G13D; read-out: KRAS G13D FRET data IC50
Procedure, shortened: as §1

[5] = biological target: KRAS G12V (Homo sapiens, UniProt P01116+P62937, G12V); assay: as above; assay type: biochemical; conditions: KRAS G12V; read-out: KRAS G12V FRET data IC50
Procedure, shortened: as §1

[6] = biological target: NRAS G12C (Homo sapiens, UniProt P01111+P62937, G12C); assay: as above; assay type: biochemical; conditions: NRAS G12C; read-out: NRAS G12C FRET data IC50
[7] = biological target: KRAS G12D (Homo sapiens, UniProt P01116+P62937, G12D); assay: as above; assay type: biochemical; conditions: read-out: KRAS G12D FRET data, IC50
Procedure, shortened: as §1

[8] = biological target: KRAS WT (Homo sapiens, UniProt P01116+P62937); assay: as above; assay type: biochemical; conditions: KRAS WT; read-out: KRAS WT FRET data IC50
Procedure, shortened: as §1

[9] = biological target: KRAS Q61H (Homo sapiens, UniProt P01116+P62937, Q61H); assay: as above; assay type: biochemical; conditions: KRAS Q61H; read-out: KRAS Q61H FRET data IC50
Procedure, shortened: (§2)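 IC50 reflects compound-driven Ras:Cyclophilin A ternary complex displacing BRAF RBD, read as lowered TR-FRET ratio relative to DMSO after Eu anti-His (10 nM) and APC anti-GST (50 nM) detection for 1.5 h. Prior incubation 3 h, 25° C, with 12.5 nM GMPPNP-loaded Ras, 50 nM BRAF RBD, 25 μM Cyclophilin A; top compound 30 μM.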

[10] = biological target: NRAS Q61R (Homo sapiens, UniProt P01111+P62937, Q61R); assay: as above; assay type: biochemical; conditions: NRAS Q61R; read-out: NRAS Q61R FRET data IC50
Procedure, shortened: as §2

[11] = biological target: NRAS Q61K (Homo sapiens, UniProt P01111+P62937, Q61K); assay: as above; assay type: biochemical; conditions: NRAS Q61K; read-out: NRAS Q61K FRET data IC50
Procedure, shortened: as §2

[12] = biological target: NRAS WT (Homo sapiens, UniProt P01111+P62937); assay: as above; assay type: biochemical; conditions: NRAS WT; read-out: NRAS WT FRET data IC50
Procedure, shortened: as §2

[13] = tested on: Capan-1 (K-Ras G12V); assay: CellTiter-Glo cell viability assay, 5-day treatment; assay type: cell-based; conditions: Homo sapiens, CAPAN-1, 120 h, 5-day treatment; read-out: Capan-1 Cell Viability assay data (K-Ras G12V, IC50)
Procedure, shortened: (§3)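 Five-day compound treatment of plated cells; luminescent read after ~30 min at RT. Percent-of-DMSO data fit to a four-parameter logistic model.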

[14] = tested on: NCI-H358 (K-Ras G12C); assay: as above; assay type: cell-based; conditions: Homo sapiens, NCI-H358, 120 h, 5-day treatment; read-out: H358 Cell Viability assay data (K-Ras G12C, IC50)
Procedure, shortened: as §3

Chain of KRAS G13D (P01116 1-169 isoform P01116-2 G13D limits assumed): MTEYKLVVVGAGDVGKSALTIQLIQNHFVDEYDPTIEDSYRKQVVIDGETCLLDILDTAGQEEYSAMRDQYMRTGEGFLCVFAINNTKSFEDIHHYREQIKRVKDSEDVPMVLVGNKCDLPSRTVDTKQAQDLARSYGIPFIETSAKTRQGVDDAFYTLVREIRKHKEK
Chain of KRAS G13D (P62937 whole entry): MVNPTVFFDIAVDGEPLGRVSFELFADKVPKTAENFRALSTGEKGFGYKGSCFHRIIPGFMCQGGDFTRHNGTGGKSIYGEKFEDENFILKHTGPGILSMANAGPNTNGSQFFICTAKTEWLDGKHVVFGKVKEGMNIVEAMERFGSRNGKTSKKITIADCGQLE
Chain of NRAS Q61K (P01111 whole entry Q61K): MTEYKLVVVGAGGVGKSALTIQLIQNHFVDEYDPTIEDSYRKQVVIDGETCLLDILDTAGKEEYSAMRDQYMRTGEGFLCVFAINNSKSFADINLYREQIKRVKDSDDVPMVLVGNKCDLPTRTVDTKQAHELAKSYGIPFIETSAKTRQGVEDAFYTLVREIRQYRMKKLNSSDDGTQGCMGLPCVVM
Chain of NRAS Q61K (P62937 whole entry): as the sequence (P62937 whole entry) above
Chain of KRAS G12C (P01116 1-169 isoform P01116-2 G12C): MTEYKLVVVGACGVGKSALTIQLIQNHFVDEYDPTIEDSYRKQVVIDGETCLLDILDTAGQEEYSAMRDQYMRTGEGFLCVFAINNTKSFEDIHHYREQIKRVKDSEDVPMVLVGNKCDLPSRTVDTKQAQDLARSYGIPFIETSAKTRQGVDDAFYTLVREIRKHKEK
Chain of KRAS G12C (P62937 whole entry): as the sequence (P62937 whole entry) above
Chain of KRAS WT (P01116 1-169 isoform P01116-2 limits assumed): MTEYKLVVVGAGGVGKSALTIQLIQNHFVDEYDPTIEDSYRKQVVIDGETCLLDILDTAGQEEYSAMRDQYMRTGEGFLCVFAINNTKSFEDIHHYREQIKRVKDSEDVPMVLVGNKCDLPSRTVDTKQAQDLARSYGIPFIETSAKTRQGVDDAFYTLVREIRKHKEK
Chain of KRAS WT (P62937 whole entry): as the sequence (P62937 whole entry) above
Chain of KRAS G12D (P01116 1-169 isoform P01116-2 G12D limits assumed): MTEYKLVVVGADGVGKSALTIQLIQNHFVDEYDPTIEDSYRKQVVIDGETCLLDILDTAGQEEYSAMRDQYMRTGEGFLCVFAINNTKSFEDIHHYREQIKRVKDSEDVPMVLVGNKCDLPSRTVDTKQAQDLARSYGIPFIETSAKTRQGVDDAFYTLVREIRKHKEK
Chain of KRAS G12D (P62937 whole entry): as the sequence (P62937 whole entry) above
Chain of KRAS G13C (P01116 1-169 isoform P01116-2 G13C): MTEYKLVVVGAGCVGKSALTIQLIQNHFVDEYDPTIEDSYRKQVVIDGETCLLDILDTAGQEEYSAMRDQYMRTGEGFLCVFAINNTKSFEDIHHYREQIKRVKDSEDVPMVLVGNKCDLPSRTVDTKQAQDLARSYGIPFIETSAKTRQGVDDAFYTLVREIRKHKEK
Chain of KRAS G13C (P62937 whole entry): as the sequence (P62937 whole entry) above
Chain of KRAS G12V (P01116 1-169 isoform P01116-2 G12V limits assumed): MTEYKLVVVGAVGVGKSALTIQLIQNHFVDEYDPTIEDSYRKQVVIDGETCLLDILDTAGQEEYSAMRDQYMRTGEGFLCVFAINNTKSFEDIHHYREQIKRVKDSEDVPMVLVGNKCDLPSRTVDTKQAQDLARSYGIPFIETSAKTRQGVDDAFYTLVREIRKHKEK
Chain of KRAS G12V (P62937 whole entry): as the sequence (P62937 whole entry) above
Chain of KRAS G12S (P01116 1-169 isoform P01116-2 G12S limits assumed): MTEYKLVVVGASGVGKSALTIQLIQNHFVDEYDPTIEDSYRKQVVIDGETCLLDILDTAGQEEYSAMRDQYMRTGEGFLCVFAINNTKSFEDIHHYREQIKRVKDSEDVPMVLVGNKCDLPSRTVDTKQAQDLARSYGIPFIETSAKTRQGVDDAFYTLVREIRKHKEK
Chain of KRAS G12S (P62937 whole entry): as the sequence (P62937 whole entry) above
Chain of NRAS WT (P01111 whole entry): as the sequence (P01111 whole entry Q61K) above, with K61Q counted along it
Chain of NRAS WT (P62937 whole entry): as the sequence (P62937 whole entry) above
Chain of KRAS Q61H (P01116 1-169 isoform P01116-2 Q61H limits assumed): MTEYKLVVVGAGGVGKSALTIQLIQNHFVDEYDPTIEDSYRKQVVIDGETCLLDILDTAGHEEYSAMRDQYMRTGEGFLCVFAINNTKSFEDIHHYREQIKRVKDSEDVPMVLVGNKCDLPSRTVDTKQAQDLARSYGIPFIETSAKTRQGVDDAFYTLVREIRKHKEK
Chain of KRAS Q61H (P62937 whole entry): as the sequence (P62937 whole entry) above
Chain of NRAS Q61R (P01111 whole entry Q61R): as the sequence (P01111 whole entry Q61K) above, with K61R counted along it
Chain of NRAS Q61R (P62937 whole entry): as the sequence (P62937 whole entry) above
Chain of NRAS G12C (P01111 whole entry G12C): as the sequence (P01111 whole entry Q61K) above, with G12C, K61Q counted along it
Chain of NRAS G12C (P62937 whole entry): as the sequence (P62937 whole entry) above

| IC50 [1] [nM] | IC50 [2] [nM] | IC50 [3] [nM] | IC50 [4] [nM] | IC50 [5] [nM] | IC50 [6] [nM] | IC50 [7] [nM] | IC50 [8] [nM] | IC50 [9] [nM] | IC50 [10] [nM] | IC50 [11] [nM] | IC50 [12] [nM] | IC50 [14] [nM] | Structure (SMILES) | IC50 [13] [nM] |
| --- | --- | --- | --- | --- | --- | --- | --- | --- | --- | --- | --- | --- | --- | --- |
| 100 to 1000 | 100 to 1000 | 100 to 1000 | 100 to 1000 | 100 to 1000 | 100 to 1000 | 1000 to 10000 | 100 to 1000 | 100 to 1000 | 100 to 1000 | 10 to 100 | 100 to 1000 | 10 to 100 | CCn1c(-c2cccnc2[C@H](C)OC)c2c3cc(ccc31)-c1csc(n1)C[C@H](NC(=O)[C@H](C(C)C)N(C)C(=O)N1CC3(CC(N(C)CCOC)C3)C1)C(=O)N1CCC[C@H](N1)C(=O)OCC(C)(C)C2 (atropisomer, axis not shown) [Example A532] | 10 to 100 |
| 100 to 1000 | 100 to 1000 | 100 to 1000 | 1000 to 10000 | 100 to 1000 | 100 to 1000 | 1000 to 10000 | 100 to 1000 | 100 to 1000 | 100 to 1000 | 100 to 1000 | 100 to 1000 | 10 to 100 | CCn1c(-c2cccnc2[C@H](C)OC)c2c3cc(ccc31)-c1csc(n1)C[C@H](NC(=O)[C@H](C(C)C)N(C)C(=O)N1C3CC1CN(C)C3)C(=O)N1CCC[C@H](N1)C(=O)OCC(C)(C)C2 [Example A541] | 100 to 1000 |
| 1000 to 10000 | 1000 to 10000 | 100 to 1000 | 1000 to 10000 | 1000 to 10000 | 100 to 1000 | 1000 to 10000 | 100 to 1000 | 100 to 1000 | 1000 to 10000 | 1000 to 10000 | 100 to 1000 | 1000 to 10000 | CCn1c(-c2cccnc2[C@H](C)OC)c2c3cc(ccc31)-c1csc(n1)C[C@H](NC(=O)[C@H](C(C)C)N(C)C(=O)N1CCC[C@H]1CN(C)C)C(=O)N1CCC[C@H](N1)C(=O)OCC(C)(C)C2 [Example A519] | 1000 to 10000 |
| 100 to 1000 | 100 to 1000 | 10 to 100 | 100 to 1000 | 100 to 1000 | 10 to 100 | 100 to 1000 | 10 to 100 | 10 to 100 | 10 to 100 | 10 to 100 | 10 to 100 | < 10 | CCn1c(-c2cccnc2[C@H](C)OC)c2c3cc(ccc31)-c1csc(n1)C[C@H](NC(=O)[C@H](C(C)C)N(C)C(=O)N1CCN(C(=O)CO)CC1)C(=O)N1CCC[C@H](N1)C(=O)OCC(C)(C)C2 (atropisomer, axis not shown) [Example A306] | 10 to 100 |
| 100 to 1000 | 100 to 1000 | 100 to 1000 | 100 to 1000 | 100 to 1000 | 100 to 1000 | 100 to 1000 | 100 to 1000 | 10 to 100 | 100 to 1000 | 100 to 1000 | 100 to 1000 | 100 to 1000 | CCn1c(-c2cccnc2[C@H](C)OC)c2c3cc(ccc31)-c1cc(O)cc(c1)C[C@H](NC(=O)[C@H](C(C)C)N(C)C(=O)OC1CC1)C(=O)N1CCC[C@H](N1)C(=O)OCC(C)(C)C2 [Example A174] | 100 to 1000 |
| 100 to 1000 | 100 to 1000 | 10 to 100 | 100 to 1000 | 100 to 1000 | 10 to 100 | 100 to 1000 | 10 to 100 | 10 to 100 | 10 to 100 | 10 to 100 | 10 to 100 | < 10 | CCn1c(-c2cccnc2[C@H](C)OC)c2c3cc(ccc31)-c1csc(n1)C[C@H](NC(=O)[C@H](C(C)C)N(C)C(=O)N1CCOCC1)C(=O)N1CCC[C@H](N1)C(=O)OCC(C)(C)C2 (atropisomer, axis not shown) [Example A372] | 10 to 100 |
| 10 to 100 | 10 to 100 | 10 to 100 | 100 to 1000 | 10 to 100 | 10 to 100 | 100 to 1000 | 10 to 100 | 10 to 100 | 10 to 100 | 10 to 100 | 10 to 100 | < 10 | CCn1c(-c2cc(N3CCN(C)CC3)cnc2[C@H](C)OC)c2c3cc(ccc31)-c1csc(n1)C[C@H](NC(=O)[C@H](C1CCCC1)N(C)C(=O)N(C)C)C(=O)N1CCC[C@H](N1)C(=O)OCC(C)(C)C2 (atropisomer, axis not shown) [Example A526] | < 10 |
| 1000 to 10000 | 1000 to 10000 | 1000 to 10000 | 1000 to 10000 | 1000 to 10000 | 1000 to 10000 | > 10000 | 1000 to 10000 | 100 to 1000 | 1000 to 10000 | 100 to 1000 | 1000 to 10000 | 100 to 1000 | CCn1c(-c2cccnc2[C@H](C)OC)c2c3cc(ccc31)-c1csc(n1)C[C@H](NC(=O)[C@H](C(C)C)N(C)C(=O)N1CC[C@@H]1C(=O)NC)C(=O)N1CCC[C@H](N1)C(=O)OCC(C)(C)C2 [Example A281] | 100 to 1000 |
| 1000 to 10000 | 1000 to 10000 | 100 to 1000 | 1000 to 10000 | 1000 to 10000 | 100 to 1000 | 1000 to 10000 | 100 to 1000 | 100 to 1000 | 100 to 1000 | 100 to 1000 | 1000 to 10000 | 100 to 1000 | CCn1c(-c2cccnc2[C@H](C)OC)c2c3cc(ccc31)-c1csc(n1)C[C@H](NC(=O)[C@H](C(C)C)N(C)C(=O)N1CC[C@]3(CCN(C)C3=O)C1)C(=O)N1CCC[C@H](N1)C(=O)OCC(C)(C)C2 (single isomer, unassigned) [Example A461] | 100 to 1000 |
| 100 to 1000 | 100 to 1000 | 100 to 1000 | 100 to 1000 | 1000 to 10000 | 100 to 1000 | 100 to 1000 | 100 to 1000 | 10 to 100 | 100 to 1000 | 100 to 1000 | 100 to 1000 | 10 to 100 | CCn1c(-c2cccnc2[C@H](C)OC)c2c3cc(ccc31)-c1csc(n1)C[C@H](NC(=O)[C@H](C(C)C)N(C)C(=O)N1CC[C@@H]1CN(C)C)C(=O)N1CCC[C@H](N1)C(=O)OCC(C)(C)C2 [Example A502] | 100 to 1000 |
| < 10 | 10 to 100 | < 10 | 10 to 100 | 10 to 100 | < 10 | 10 to 100 | 10 to 100 | < 10 | < 10 | 10 to 100 | < 10 | < 10 | CCn1c(-c2cc(C3CCN(C)CC3)cnc2[C@H](C)OC)c2c3cc(ccc31)-c1cc(O)cc(c1)C[C@H](NC(=O)[C@H](C(C)C)N(C)C(=O)[C@@H]1OCC[C@@H]1c1ccccc1)C(=O)N1CCC[C@H](N1)C(=O)OCC(C)(C)C2 (atropisomer, axis not shown) [Example A577] | < 10 |

| Structure (SMILES) | IC50 [1] [nM] | IC50 [2] [nM] | IC50 [3] [nM] | IC50 [4] [nM] | IC50 [5] [nM] | IC50 [6] [nM] | IC50 [7] [nM] | IC50 [8] [nM] | IC50 [9] [nM] | IC50 [10] [nM] | IC50 [11] [nM] | IC50 [12] [nM] | IC50 [14] [nM] | IC50 [13] [nM] |
| --- | --- | --- | --- | --- | --- | --- | --- | --- | --- | --- | --- | --- | --- | --- |
| CCn1c(-c2cccnc2[C@H](C)OC)c2c3cc(ccc31)-c1csc(n1)C[C@H](NC(=O)[C@H](C(C)C)N(C)C(=O)N1CCC3(CN(C)C3)C1)C(=O)N1CCC[C@H](N1)C(=O)OCC(C)(C)C2 (atropisomer, axis not shown) [Example A503] | 10 to 100 | 100 to 1000 | 10 to 100 | 100 to 1000 | 100 to 1000 | 10 to 100 | 100 to 1000 | 10 to 100 | 10 to 100 | 10 to 100 | 10 to 100 | 10 to 100 | 10 to 100 | 10 to 100 |
